# Data published in patent publication EP1623706A2 (priority 2001, dated 2002).
# pIC50: −log10 of the molar value. Read-outs that look alike come from different tables or passages of the source.
# Experiments:
# [1] = tested on: endothelial cells occurring in MATRIGEL plugs; assay: In vivo […] plug angiogenesis model; parameters: species or system athymic (nu/nu) Balb/c mice; details: mouse
# Method: LX1 human lung tumor fragments that were maintained by serial subcutaneous passage in athymic (nu/nu) Balb/c mice were implanted subcutaneously as small fragments approximately 0.1 mm^3 in size. Tumor volume doubling time for this tumor in these studies was 2.8 days. When tumors reached the size range of 150-200 mm^3, liquid […] was injected subcutaneously on the side contralateral to the tumor. Treatment was initiated 24 hours later at varying doses and schedules. Prior to implanting, […] is prepared by placing solidified […] on ice overnight at 4 C in accordance with the method described by Passiniti et al. (Lab. Invest. 1992 67:519-28). At the liquid phase and while on ice, VEGF and bFGF (Peprotech, Inc. Rocky Hill, NJ) is added to the […] at final respective concentrations of 75 ng/ml and 300 ng/ml. Stock solutions of these growth factors are made fresh at 10 mg/ml in PBS. […] These plugs were then processed for paraffin embedding and sectioned at 5 µm thickness followed by staining with hematoxylin and eosin prior to quantitative analysis. The number of endothelial cells in plugs was quantitated using the IMAGEPRO PLUS software (Media Cybernetics, Inc., Silver Spring, MD) at a magnification of 20x. […]
# Angiogenesis is evaluated in these plugs as the number of endothelial cells migrating into plugs from compound treated groups relative to the vehicle treated group. […]
# [2] = tested on: human breast carcinoma line H3396; assay: H3396 tumor cell proliferation (3H-thymidine incorporation); format: cell-based
# Method: Primary human umbilical vein endothelial cells (HUVEC) were purchased from CLONETICS Inc. (San Diego, CA) and used at passage 2 to 3. Proliferation was measured using ^3H-thymidine incorporation in cells by pulsing twenty-four hours prior to harvesting cell cultures. The human breast carcinoma line H3396 was used to assess activity of compound on tumor cells. Cells (2 × 10^3) were plated on collagen IV coated 96 well plates. Twenty-four hours later, compounds were added at varying concentrations. After 48 hours, ^3H-thymidine was added and cells were allowed to incorporate this label over a twenty-four hour period. Cellular extracts were harvested onto glass filters and incorporated radioactivity was determined by counting in a Beta scintillation counter. The IC50, defined as the drug concentration that causes 50% inhibition of ^3H-thymidine incorporation, was extrapolated from the plotted data. Cell selective inhibition for endothelial cells by a particular compound was defined by at least a ten-fold greater inhibition of HUVEC primary cell cultures when compared to the H3396 tumor cell line.
# [3] = tested on: human umbilical vein endothelial cell (HUVEC); assay: HUVEC proliferation (3H-thymidine incorporation); format: cell-based; details: second value of two separate experiments, read-out: IC50 in Cells HUVEC
# Method: Primary human umbilical vein endothelial cells (HUVEC) were purchased from CLONETICS Inc. (San Diego, CA) and used at passage 2 to 3. Proliferation was measured using ^3H-thymidine incorporation in cells by pulsing twenty-four hours prior to harvesting cell cultures. […] Cells (2 × 10^3) were plated on collagen IV coated 96 well plates. Twenty-four hours later, compounds were added at varying concentrations. After 48 hours, ^3H-thymidine was added and cells were allowed to incorporate this label over a twenty-four hour period. Cellular extracts were harvested onto glass filters and incorporated radioactivity was determined by counting in a Beta scintillation counter. The IC50, defined as the drug concentration that causes 50% inhibition of ^3H-thymidine incorporation, was extrapolated from the plotted data.
# [4] = tested on: mammary 16/C murine carcinoma; assay: Staged subcutaneous mammary 16/C carcinoma in mice, gross log cell kill; format: in vivo, C3H mice
# Description: The final concentrations of each component of the vehicle was as follows: CREMOPHOR 10%; ethanol […]; aqueous 80%.
# C3H conventional mice were purchased from Harlan-Sprague Dawley (Indianapolis, IN) and fed mouse chow and water ad libitum.
# The metastatic mammary 16/C murine carcinoma was propagated biweekly in C3H mice. Experiments were initiated by subcutaneous insertion by trocar of tumor fragments.
# For in vivo tumor testing, the C3H mice were implanted subcutaneously with mammary 16/C tumor fragments. All treatments were initiated on Day 10 post-tumor implant, except for an untreated control group. All groups contained 8 mice. Tumors were measured once or twice weekly and dimensions were converted to weights using the formula Weight (milligrams)= […], where a=length and b=width (in millimeters). The median time for tumors within each group of mice to reach 1 gram was determined and the delays in median time to reach 1 gram tumor target size for treated (T) versus control (C) groups was calculated. These delays in tumor growth (T-C value in days) were further converted to gross log cell kill (LCK) values using the formula T-C/(tumor volume doubling time, TVDT, of the control group) x (3.32). A LCK of greater than or equal to 1 LCK was considered an active result. Cures were assessed at the end of each experiment and defined in the absence of a tumor mass of greater than 35 milligrams. Experiments were terminated more than 10 x TVDT following the completion of all treatments.
# [5] = tested on: drug-resistant Lewis Lung carcinoma; details: 170 mg/kg every 6 days versus other cyclophosphamide schedules tested (e.g. 135 mg/kg every 4 days); cited from earlier work
# [6] = metronomic regime 20 mg/kg orally, q2dx15, cumulative dose 300 mg/kg
# Description for L2987 human lung tumors: L2987 human lung tumors were implanted and allowed to reach 50 to 100 mm^3 before drug administration.
smiles,measurement,setting,value
"COC(=O)O[C@@]12CO[C@@H]1C[C@H](O)[C@@]1(C)C(=O)[C@H](OC(C)=O)C3=C(C)[C@@H](OC(=O)[C@H](O)[C@@H](NC(=O)OC(C)(C)C)C(C)(C)C)C[C@@](O)([C@@H](OC(=O)c4ccccc4)[C@H]21)C3(C)C [Formula I, 3'-tert-Butyl-3'-N-tert-butyloxycarbonyl-4-deacetyl-3'-dephenyl-3'-N-debenzoyl-4-O-methoxycarbonyl-paclitaxel]",doses lower than the maximum tolerated dose at which anti-angiogenic effects are still observed in vivo,[1],approximately 13 fold
same,pIC50,"[2]; H3396, read-out: IC50 in Cells H3396, second value of two separate experiments",8.52
same,weight loss,"L2987 human lung tumors; 60 mg/kg orally, standard schedule q2dx5 (MTD), cumulative dose 300 mg/kg",weight loss was also observed
same,anti-tumor response,"L2987 human lung tumors; 60 mg/kg orally, standard schedule q2dx5 (MTD), cumulative dose 300 mg/kg, compared with metronomic regime",greater anti-tumor response was observed
same,tumor growth,L2987 human lung tumors; [6],suppressed tumor growth
same,weight loss,L2987 human lung tumors; [6],no weight loss was observed
"CC(=O)O[C@H]1C(=O)[C@@]2(C)[C@H]([C@H](OC(=O)c3ccccc3)[C@]3(O)C[C@H](OC(=O)[C@H](O)[C@@H](NC(=O)c4ccccc4)c4ccccc4)C(C)=C1C3(C)C)[C@]1(OC(C)=O)CO[C@@H]1C[C@@H]2O [TAXOL, paclitaxel]",pIC50,[3],8.30
same,cures/total,"[4]; Paclitaxel 20 mg/kg/inj qd 10-14 iv, Paclitaxel 30 qd 32-36 iv, no Formula I, Day 88 post-tumor implant",1/8
same,cures/total,"[4]; Paclitaxel 30 mg/kg/inj qd 10-14 iv only, Day 60 post tumor implant",2/8
same,cures/total,"[4]; Paclitaxel 30 mg/kg/inj qd 10-14 iv, Paclitaxel 30 qd 32-36 iv, no Formula I, Day 88 post-tumor implant, listed as Paclitaxel",2/8
same,cures/total,"[4]; Paclitaxel 30 mg/kg/inj qd 10-14 iv, Paclitaxel 30 qd 32-36 iv, no Formula I, Day 88 post-tumor implant, listed as paclitaxel",2 of 8
same,cures/total,"[4]; Paclitaxel 45 mg/kg/inj qd 10-14 iv only, Day 60 post tumor implant",1/8
same,likely MTD regimen,"[4]; during each of the two courses of treatment (qdx5; 10, 32, iv)",30 mg/kg/inj
same,MTD regimen,"[4]; qdx5, iv, beginning on Day 10 post-tumor implant, single course",45 mg/kg/injection
same,pIC50,"[2]; H3396, second value of two separate experiments, read-out: IC50 in Cells H3396",8.40
O=P1(N(CCCl)CCCl)NCCCO1 (stereo not shown) [cyclophosphamide],controlling tumor growth,[5],more effective
